Laboratory results reported in US20020137173A1, “Membrane-associated sphingomyelinase derived from bovine brain, isolation method therefor and anti-sphingomyelinase monoclonal anitibody” (priority 2001, published 2002).
“Also recorded” adds a separate entry of the source. Where two headings read alike, the source gives them in different places.

How the values were obtained:
[1] = system: N-mSMase ε; experiment: N-mSMase activity assay: hydrolysis of [N-methyl-14C]sphingomyelin with added cations, reducing agents or surfactants; format: biochemical, bovine; conditions: for influence of reducing agents on N-mSMase ε activity: 0.5-10 mM; for influence of glutathione-like agents on N-mSMase ε activity: 1, 3, 5 or 10 mM
Description: (§1) After being dried with a nitrogen stream, [N-methyl-^14C]sphingomyelin (choline residue labeled with ^14C) was suspended in ethanol. 10 μl of a sample was mixed with 100 μl of a reaction solution (10 mM MgSO4, 50 μM [N-methyl-^14C]sphingomyelin (c.a. 60,000 cpm), 2 mM sodium deoxycholate, 100 mM Tris-HCl (pH 7.0)) and incubated at 37° C. for 30 min. Addition of 320 μl of a mixture of chloroform/methanol (1:1 volume ratio) and 30 μl of 2N hydrochloride stopped the reaction. After vortexing and centrifuging the resulting mixture at 10,000× g, 200 μl of the aqueous layer was mixed with 2.5 ml of a scintillation cocktail, such as that manufactured by Packard Instrument Co., U.S.A., identified as “Insta gel-XF”, followed by measuring the radioactivity with the aid of a Packard Tri-carb liquid β-scintillation counter.
In order to examine the dependency of N-mSMase ε activity on Mg^2+, Fraction B obtained in Step 6 of Example 1 was desalted by being applied to a PD-10 column (Sephadex G-25, Pharmacia Biotechnology Co., Sweden) For use, the column was equilibrated twice with distilled water, in advance. The desalted protein fraction (corresponding to protein 10 ng) was measured for N-mSMase ε activity in the presence of […] of MgCl2 in the manner described in Experimental Example 1.
An examination was made of the influence of other cations, such as Ca^2+, Fe^3+, Fe^2+, Zn^2+, Cu^2+ and […] on the activity of N-mSMase ε. To a solution containing the desalted protein fraction (corresponding to protein 10 ng) obtained in C and 5 mM MgCl2, CaCl2, FeCl3, FeCl2, ZnCl2 or CuCl2 was added to yield a final concentration of 0.01, 0.02, 0.05, 0.1, 0.25 or 0.5 mM, followed by the measurement of N-mSMase ε activity in accordance with the procedure of Experimental Example 1.
After the addition of 10 μl of [N-methyl-^14C]sphingomyelin, the N-mSMase activity was measured according to the procedure of Experimental Example 1. For comparison, a Tris-HCl buffer containing no reducing agents was used as a control. The N-mSMase ε activity influenced by the reducing agents was expressed as a percentage relative to the control.
After being treated with 1, 3, 5 or 10 mM of GSSG, cystein, cystein-glycine or γ-glutaric acid-cystein, the activity of N-mSMase ε was measured in the same manner.
Sodium deoxycholate and Triton X-100 were selected as surfactant5 to be tested. The protein fraction obtained in C (corresponding to 10 ng of protein) was measured for N-mSMase ε activity in reaction solutions containing 0.5, 1, 2 and 5 mM of sodium deoxycholate, respectively, in accordance with the procedure of Experimental Example 1. In the case of Triton X-100, it was prepared at concentrations of 0.05, 0.01, 0.5 and 0.1%.

[2] = system: partially purified N-mSMase from rat brain; conditions: Liu et al., J. Biol. Chem. 273, 34472-34479; cited from earlier work
[3] = Kinetic analysis (Lineweaver-Burk), substrate specificity and optimum pH of the purified enzyme; format: biochemical, bovine; conditions: 0.4, 1.0 and 2.0 mM sodium deoxycholate
Description: as §1
The N-mSMase ε prepared in Step 6 of Example 1 was subjected to Lineweaver-Burk analysis. In this regard, enzyme N-mSMase ε was used at amounts of 10 ng or less with the substrate sphingomyelin varying, in concentration, from 6.25 to 100 μM.
Separately, the same Lineweaver-Burk analysis was carried out, but in the presence of 0.4, 1.0 and 2.0 mM sodium deoxycholate. […]

[4] = desalted protein fraction (10 ng), 5 mM MgCl2, chloride salts 0.01-0.5 mM, read-out: IC50, inhibition of enzyme activity (hydrolysis of sphingomyelin) by cations

Question: With `O[C@H](CS)[C@H](O)CS` (racemic) [DTT, dithiothreitol] as the molecule, how does the “influence of reducing agents on N-mSMase ε activity” value (“influence of reducing agents” for short) ([1]; preincubation 37° C. 10 min) read?
Answer: not inhibited

Question: What about the “influence of reducing agents” value ([1]; preincubation 37° C. 10 min, listed as dithiothreitol) of the same molecule?
Answer: neither dithiothreitol nor 2-mercaptoethanol has any influence

Question: And the “effect on the activity of partially purified rat brain N-mSMase” value [2]?
Answer: promoted

Question: With `OCCS` [2-mercaptoethanol] as the molecule, how does the “influence of reducing agents” value ([1]; preincubation 37° C. 10 min) read?
Answer: not inhibited; also recorded: neither dithiothreitol nor 2-mercaptoethanol has any influence

Question: With `[Ca+2].[Cl-].[Cl-]` [Ca^2+, CaCl2] as the molecule, how does the “influence on the activity of N-mSMase ε” value ([1]; concentration of 0.5 mM or less, 5 mM MgCl2) read?
Answer: no influence

Question: Which IC50 [1, 4] does the source give for `[Cl][Cu][Cl]` [Cu^2+, CuCl2] here?
Answer: 28 µM

Question: For `[Cl-].[Cl-].[Mg+2]` [Mg^2+, MgCl2], which “dependency of N-mSMase ε activity on Mg2+” value ([1]; 1, 5, 10 and 25 mM MgCl2, desalted fraction B) is on record?
Answer: Mg^2+-concentration dependent

Question: Which IC50 [1, 4] does the source give for `[Cl-].[Cl-].[Zn+2]` [Zn^2+, ZnCl2] here?
Answer: 32 µM

Question: With `N[C@@H](CS)C(=O)O` [cystein] as the molecule, how does the “influence of glutathione-like agents on N-mSMase ε activity” value (shortened to “influence of glutathione-like agents”) [1] read?
Answer: inhibited; also recorded: reduction in the activity

Question: Which results are given for `N[C@@H](CCC(=O)N[C@@H](CS)C(=O)NCC(=O)O)C(=O)O` [glutathione]?
Answer: activity of N-mSMase ε at 10 mM glutathione ([1]; glutathione 10 mM): fully inhibited; also recorded: completely inhibited; activity of N-mSMase ε with increasing glutathione concentration up to 3 mM ([1]; glutathione up to 3 mM): increases; IC50 ([1]; read-out: IC50, inhibition of sphingomyelinase activity by glutathione, glutathione above 3 mM, preincubation 37° C. 10 min, Tris-HCl pH 7.5): 8000 µM

Question: With `N[C@@H](CCC(=O)N[C@@H](CS)C(=O)O)C(=O)O` [γ-glutaric acid-cystein] as the molecule, how does the “influence of glutathione-like agents” value [1] read?
Answer: inhibited; also recorded: reduction in the activity

Question: Which “influence of glutathione-like agents” value [1] does the source give for oxidized glutathione [GSSG] here?
Answer: inhibited; also recorded: reduction in the activity

Question: With phosphatidylserine as the molecule, how does the “effect on the activity of partially purified rat brain N-mSMase” value [2] read?
Answer: promoted

Question: With sodium deoxycholate as the molecule, how does the “effect on the Km value of N-mSMase ε” value [3] read?
Answer: could not change
